Experimental data published in article PMC12190436, “5-Ene-2-arylaminothiazol-4(5H)-ones Induce Apoptosis in Breast Cancer Cells” (Cells, 2025).

Key:
[1] = system: Primary Dermal Fibroblast (HDFa); experiment: MTT cell viability assay; type: cell-based; details: Homo sapiens, normal cells
Source text: (§1) All of the tested cell lines were acquired from the American Type Culture Collection (ATCC, Manassas, VA, USA), including human breast cancer cell lines (MCF-7, MDA-MB-231), human gastric cancer cell line (AGS), human colorectal cancer cell lines (HT-29, DLD-1), human glioblastoma cancer cell lines (T98G, A172), mouse astrocyte type I clone (C8-D1A), human normal epithelial breast cells (MCF-10A) and primary dermal fibroblast (HDFa). Such cell lines as AGS, MCF-7, MDA-MB-231, A172, T98G, C8-D1A, and primary dermal fibroblast (HDFa) were cultured in complete medium–DMEM (Corning, Kennebunk, ME, USA). RPMI-1640 (ATCC, Manassas, VA, USA) was used for the DLD-1 cell line, and McCoy’s 5A (PAN-Biotech, Aidenbach, Germany) for the HT-29 cell line. To all utilized media additionally was added 10% fetal bovine serum (FBS) (Eurx, Gdansk, Poland) and 1% penicillin and streptomycin solution (Corning, Kennebunk, ME, USA). MCF-10A cells were incubated in MEGM (Mammary Epithelial Cell Growth Medium) BulletKit supplemented with penicillin/streptomycin cocktail and 5% horse serum. All cells were cultured at 37 °C in an atmosphere with 5% CO₂ in tissue culture dishes (Sarstedt, Numbrecht, Germany). For experiments, cells were washed with phosphate-buffered saline (PBS) (Corning, Kennebunk, ME, USA) followed by the addition of 0.05% trypsin with 0.02% EDTA (Corning, Kennebunk, ME, USA). Scepter 3.0 cell counter (Merck Millipore, Burlington, MA, USA) was applied before each seeding to calculate the number of cells. For the next analyses, cells were reseeded in 6-well plates, 24-well plates, and 96-well plates.
(§2) MTT (3-(4,5-dimethylthiazol-2-yl)-2,5-diphenyltetrazolium bromide) assay method was utilized to analyze compound effects on cell viability. All cell lines were seeded in 96-well plates with 1 × 10^4 cells per well. After 24 h, cells were treated with the tested compounds and reference drug at concentrations of 0.1, 1, 2.5, 5, 10, and 20 µM for 24, 48, or 72 h. Next, a solution of 3-(4,5-dimethyl-2-thiazolyl)-2,5-diphenyl-2H-tetrazolium bromide (Sigma-Aldrich, St. Louis, MO, USA) in PBS with a concentration of 5 mg/mL was prepared. After the incubation with tested compounds, 10 µL of the prepared MTT solution was applied to each well, followed by 2 h of incubation at 37 °C. Next, cells underwent lysis by adding 100 µL of pre-prepared lysing buffer (containing 25 mM HCl, 2% acetic acid, 3% DMF, and 5% SDS, with a pH of 4.7). The absorbance was measured using a UV-VIS Helios Gamma (Unicam/ThermoFisher Scientific Inc., Cleveland, OH, USA) at 570 nm wavelength. The cells incubated with vehicle substance (0.1% DMSO) were taken as controls.
(§3) To investigate the cytotoxic potential of the newly synthesized compounds, a comprehensive assessment was conducted utilizing the MTT assay. This assay was applied on a diverse panel of cell lines, such as human breast cancer cell lines (MCF-7 and MDA-MB-231), human gastric cancer cell line (AGS), human colorectal cancer cell lines (HT-29 and DLD-1), human glioblastoma cancer cell lines (T98G and A172), mouse astrocyte type I clone cells (C8-D1A), primary dermal fibroblast (HDFa), and human normal breast cells (MCF-10A) for 24, 48, and/or 72 h.

[2] = system: T98G; experiment: MTT cell viability assay; type: cell-based; details: Homo sapiens
Source text: as §1, §2, §3

[3] = system: HT-29; experiment: MTT cell viability assay; type: cell-based; details: Homo sapiens
Source text: as §1, §2, §3

[4] = system: AGS; experiment: MTT cell viability assay; type: cell-based; details: Homo sapiens
Source text: as §1, §2, §3

[5] = system: MCF-7; experiment: MTT cell viability assay; type: cell-based; details: Homo sapiens
Source text: as §1, §2, §3

[6] = system: A172; experiment: MTT cell viability assay; type: cell-based; details: Homo sapiens
Source text: as §1, §2, §3

[7] = system: DLD-1; experiment: MTT cell viability assay; type: cell-based; details: Homo sapiens
Source text: as §1, §2, §3

[8] = system: MDA-MB-231; experiment: MTT cell viability assay; type: cell-based; details: Homo sapiens
Source text: as §1, §2, §3

[9] = system: MCF-7 cells; experiment: Annexin V-FITC/propidium iodide flow cytometry; type: cell-based, human; details: 24 h
Experimental: The MCF-7 cells were seeded on 6-well plates (1 × 10^5 cells per well) and incubated for 24 h. Afterwards, the cells were washed, and tested compounds (Les-6416, Les-6418, Les-6381, Les-6423, and Les-6424) were added in a concentration of 5 µM. The reference drug doxorubicin hydrochloride was applied in a concentration of 0.5 µM. The cells were incubated with the compounds for 24 h. Afterwards, the cells were washed several times with cold PBS and the cell suspensions were prepared in the binding buffer from the kit at a concentration of 1 × 10^6 cells/mL. A total of 100 µL of suspension was collected from each sample and transferred to the tubes. After that, 5 µL of Annexin V-FITC and 5 µL of propidium iodide were added. After 15 min of incubation at room temperature in a dark environment, the content of the tubes was filled with binding buffer up to 500 µL and assessed by BD FACSCanto II flow cytometer (Becton Dickinson Biosciences, San Jose, CA, USA). A total of 1 × 10^4 events were measured for each sample. The results were investigated by applying FACSDiva software Version 6.1.3. (BD Biosciences Systems, San Jose, CA, USA).
To assess the effects of novel compounds on apoptosis, we utilized flow cytometry analysis with Annexin V-FITC and Propidium Iodide double staining. In this way, we could distinguish between different cell populations based on their state: unstained or alive cells, cells stained with propidium iodide or necrotic cells, cells only stained with FITC-labeled annexin V or early apoptotic cells, and cells stained with both annexin V and propidium iodide or late apoptotic cells.

IC50 ([3]; HT-29 24 h): > 20 µM | IC50 ([3]; HT-29 48 h): > 20 µM | IC50 ([4]; AGS 24 h): > 20 µM | IC50 ([4]; AGS 48 h): > 20 µM | IC50 ([5]; MCF7, MCF-7 24 h): > 20 µM | IC50 ([5]; MCF7, MCF-7 48 h): > 20 µM | IC50 ([5]; MCF7, MCF-7 72 h): > 20 µM | IC50 ([7]; DLD-1 24 h): > 20 µM | IC50 ([7]; DLD-1 48 h): > 20 µM | IC50 ([8]; MDA-MB-231 24 h): > 20 µM | IC50 ([8]; MDA-MB-231 48 h): > 20 µM | IC50 ([8]; MDA-MB-231 72 h): > 20 µM
SMILES: COc1cc(NC2=NC(=O)C(=Cc3ccco3)S2)cc(OC)c1OC [Les-6424, 5-(Furan-2-ylmethylene)-2-((3,4,5-trimethoxyphenyl)amino)thiazol-4(5H)-one]
IC50 ([1]; HDFa 24 h): > 20 µM | IC50 ([1]; HDFa 48 h): > 20 µM | IC50 ([1]; HDFa 72 h): > 20 µM | IC50 ([2]; T98G 24 h): > 20 µM | IC50 ([2]; T98G 48 h): > 20 µM | IC50 ([6]; A 172, A172 24 h): > 20 µM | IC50 ([6]; A 172, A172 48 h): > 20 µM | proapoptotic effect in comparison to the control ([9]; 5 µM): did not have any statistically significant results | viability at 5 µM ([9]; Homo sapiens, MCF7, 5 µM, read-out: Viable cells, cell population): 90.4%
